Measurements: patent US20240399142A1, “Methods Of Using Alternating Electric Fields And Checkpoint Inhibitors” (NOVOCURE GMBH, priority 2023, published 2024)

Assay: LUNAR study safety: adverse events per CTCAE version 4.03, safety population
Format: in vivo, human
[1] = Grade 4, nervous system disorders
[2] = Grade 4, renal and urinary disorders
[3] = Grade 4, respiratory, thoracic, and mediastinal disorders
[4] = Grade 4, skin and subcutaneous tissue disorders

Experimental: Safety and treatment data were compiled from all patients who received any study therapy and were analyzed according to the actual treatment received. Analyses were performed using SAS software, version 9.4 (SAS Institute).

What does the source list for `CC(=O)O[C@@]12CO[C@@H]1C[C@H](O)[C@@]1(C)C(=O)[C@H](O)C3=C(C)[C@@H](OC(=O)[C@H](O)[C@@H](NC(=O)OC(C)(C)C)c4ccccc4)C[C@@](O)([C@@H](OC(=O)c4ccccc4)[C@H]21)C3(C)C` [Docetaxel, docetaxel]?
Metastases to bone (Grade 4): 0 no. (%); Metastases to central nervous system (Grade 4): 0 no. (%); Metastases to meninges (Grade 4): 0 no. (%); Metastases to skin (Grade 4): 0 no. (%); Mouth ulceration (Grade 4): 0 no. (%); Mucosal inflammation (Grade 4): 0 no. (%); Multiple organ dysfunction syndrome (Grade 4): 0 no. (%); Muscular weakness (Grade 4): 0 no. (%); Myalgia (Grade 4): 0 no. (%); Myocardial infarction (Grade 4): 0 no. (%); Nausea (Grade 4): 0 no. (%); Neck pain (Grade 4): 0 no. (%); Neuropathy peripheral (Grade 4): 0 no. (%); Neutropenia (Grade 4): 10 (14.7) no. (%); Neutrophil count decreased (Grade 4): 4 (5.9) no. (%); Non-cardiac chest pain (Grade 4): 0 no. (%); Oedema peripheral (Grade 4): 0 no. (%); Oral candidiasis (Grade 4): 0 no. (%); Pancreatic failure (Grade 4): 0 no. (%); Pancreatitis (Grade 4): 0 no. (%); Pericardial effusion (Grade 4): 0 no. (%); Peripheral sensory (Grade 4): 0 no. (%); Platelet count decreased (Grade 4): 0 no. (%); Pneumonia (Grade 4): 0 no. (%); Pneumonia pseudomonal (Grade 4): 0 no. (%); Pneumonia staphylococcal (Grade 4): 0 no. (%); Pyelonephritis (Grade 4): 0 no. (%); Pyopneumothorax (Grade 4): 0 no. (%); Pyrexia (Grade 4): 0 no. (%); Refeeding syndrome (Grade 4): 0 no. (%); Respiratory tract infection (Grade 4): 0 no. (%); Right ventricular failure (Grade 4): 0 no. (%); Sepsis (Grade 4): 1 (1.5) no. (%); Septic shock (Grade 4): 0 no. (%); Skin infection (Grade 4): 0 no. (%); Stomatitis (Grade 4): 0 no. (%); Subileus (Grade 4): 0 no. (%); Thrombocytopenia (Grade 4): 1 (1.5) no. (%); Thyroiditis subacute (Grade 4): 0 no. (%); Tumor pain (Grade 4): 0 no. (%); Upper respiratory tract infection (Grade 4): 0 no. (%); Urinary tract infection (Grade 4): 0 no. (%); Urosepsis (Grade 4): 0 no. (%); Vomiting (Grade 4): 0 no. (%); Weight decreased (Grade 4): 0 no. (%); White blood cell count decreased (Grade 4): 2 (2.9) no. (%); Brain oedema [1]: 1 (1.5) no. (%); Cauda equina syndrome [1]: 0 no. (%); Dysarthria [1]: 0 no. (%); Embolic stroke [1]: 0 no. (%); Hemiparesis [1]: 0 no. (%); Motor dysfunction [1]: 0 no. (%); Nervous system disorder [1]: 0 no. (%); Neurologic neglect syndrome [1]: 0 no. (%); Neurotoxicity [1]: 0 no. (%); Peripheral sensorimotor neuropathy [1]: 0 no. (%); Quadriparesis [1]: 0 no. (%); Seizure [1]: 0 no. (%); Syncope [1]: 0 no. (%); Vocal cord paralysis [1]: 0 no. (%); Anxiety (Grade 4, psychiatric disorders): 0 no. (%); Confusional state (Grade 4, psychiatric disorders): 0 no. (%); Mental status changes (Grade 4, psychiatric disorders): 1 (1.5) no. (%); Acute kidney injury [2]: 0 no. (%); Urinary retention [2]: 0 no. (%); Acute respiratory failure [3]: 0 no. (%); Atelectasis [3]: 0 no. (%); Bronchial obstruction [3]: 2 (2.9) no. (%); Bronchopleural fistula [3]: 0 no. (%); Chronic obstructive pulmonary disease [3]: 0 no. (%); Cough [3]: 0 no. (%); Dyspnoea [3]: 1 (1.5) no. (%); Esophago-bronchial fistula [3]: 0 no. (%); Hemoptysis [3]: 0 no. (%); Hypoxia [3]: 0 no. (%); Interstitial lung disease [3]: 0 no. (%); Pleural effusion [3]: 0 no. (%); Pneumonia aspiration [3]: 0 no. (%); Pneumonitis [3]: 0 no. (%); Pulmonary embolism [3]: 0 no. (%); Pulmonary hemorrhage [3]: 0 no. (%); Respiratory failure [3]: 0 no. (%); Alopecia [4]: 0 no. (%); Dermatitis exfoliative [4]: 0 no. (%); Pruritus [4]: 0 no. (%); Rash [4]: 0 no. (%); Rash erythematous [4]: 0 no. (%); Rash maculopapular [4]: 0 no. (%); Skin erosion [4]: 0 no. (%); Skin reaction [4]: 0 no. (%); Skin toxicity [4]: 0 no. (%); Deep vein thrombosis (Grade 4, vascular disorders): 0 no. (%); Embolism (Grade 4, vascular disorders): 0 no. (%); Hypertension (Grade 4, vascular disorders): 0 no. (%); Jugular vein thrombosis (Grade 4, vascular disorders): 1 (1.5) no. (%); Peripheral arterial occlusive disease (Grade 4, vascular disorders): 0 no. (%); Vena cava embolism (Grade 4, vascular disorders): 0 no. (%); Acute myocardial infarction (Grade 5): 0 no. (%); Alanine aminotransferase increased (Grade 5): 0 no. (%); Anemia (Grade 5): 0 no. (%); Anemia macrocytic (Grade 5): 0 no. (%); Any adverse event (Grade 5): 4 (5.9) no. (%); Arthralgia (Grade 5): 0 no. (%); Ascites (Grade 5): 0 no. (%); Aspergillus infection (Grade 5): 0 no. (%); Asthenia (Grade 5): 0 no. (%); Atrial tachycardia (Grade 5): 0 no. (%); Autoimmune colitis (Grade 5): 0 no. (%); Back pain (Grade 5): 0 no. (%); Blood bilirubin increased (Grade 5): 0 no. (%); Bone pain (Grade 5): 0 no. (%); Bronchiolitis (Grade 5): 0 no. (%); Bronchitis (Grade 5): 0 no. (%); C-reactive protein increased (Grade 5): 0 no. (%); COVID-19 pneumonia (Grade 5): 0 no. (%); Cancer pain (Grade 5): 0 no. (%); Cardiac failure congestive (Grade 5): 0 no. (%); Cardiac tamponade (Grade 5): 0 no. (%); Cardiac ventricular thrombosis (Grade 5): 0 no. (%); Cataract (Grade 5): 0 no. (%); Chest pain (Grade 5): 0 no. (%); Cholangitis (Grade 5): 0 no. (%); Cholecystitis (Grade 5): 0 no. (%); Cholelithiasis (Grade 5): 0 no. (%); Clostridium bacteremia (Grade 5): 0 no. (%); Coronary artery disease (Grade 5): 0 no. (%); Decreased appetite (Grade 5): 0 no. (%); Dehydration (Grade 5): 0 no. (%); Diarrhea (Grade 5): 0 no. (%); Diverticulitis (Grade 5): 0 no. (%); Drug hypersensitivity (Grade 5): 0 no. (%); Encephalitis (Grade 5): 0 no. (%); Esophagitis (Grade 5): 0 no. (%); Euthanasia (Grade 5): 1 (1.5) no. (%)
